Source: patent US7803795B2, “Phthalazine derivatives as parp inhibitors” (Janssen Pharmaceutica N.V., priority 2004, dated 2010)

Target: T1, TANK-2 enzyme (Homo sapiens, UniProt Q9H2K2)
T1 construct: His tag (inferred from capture on a Ni-coated plate); made in house
T1 sequence (Q9H2K2 1-1166): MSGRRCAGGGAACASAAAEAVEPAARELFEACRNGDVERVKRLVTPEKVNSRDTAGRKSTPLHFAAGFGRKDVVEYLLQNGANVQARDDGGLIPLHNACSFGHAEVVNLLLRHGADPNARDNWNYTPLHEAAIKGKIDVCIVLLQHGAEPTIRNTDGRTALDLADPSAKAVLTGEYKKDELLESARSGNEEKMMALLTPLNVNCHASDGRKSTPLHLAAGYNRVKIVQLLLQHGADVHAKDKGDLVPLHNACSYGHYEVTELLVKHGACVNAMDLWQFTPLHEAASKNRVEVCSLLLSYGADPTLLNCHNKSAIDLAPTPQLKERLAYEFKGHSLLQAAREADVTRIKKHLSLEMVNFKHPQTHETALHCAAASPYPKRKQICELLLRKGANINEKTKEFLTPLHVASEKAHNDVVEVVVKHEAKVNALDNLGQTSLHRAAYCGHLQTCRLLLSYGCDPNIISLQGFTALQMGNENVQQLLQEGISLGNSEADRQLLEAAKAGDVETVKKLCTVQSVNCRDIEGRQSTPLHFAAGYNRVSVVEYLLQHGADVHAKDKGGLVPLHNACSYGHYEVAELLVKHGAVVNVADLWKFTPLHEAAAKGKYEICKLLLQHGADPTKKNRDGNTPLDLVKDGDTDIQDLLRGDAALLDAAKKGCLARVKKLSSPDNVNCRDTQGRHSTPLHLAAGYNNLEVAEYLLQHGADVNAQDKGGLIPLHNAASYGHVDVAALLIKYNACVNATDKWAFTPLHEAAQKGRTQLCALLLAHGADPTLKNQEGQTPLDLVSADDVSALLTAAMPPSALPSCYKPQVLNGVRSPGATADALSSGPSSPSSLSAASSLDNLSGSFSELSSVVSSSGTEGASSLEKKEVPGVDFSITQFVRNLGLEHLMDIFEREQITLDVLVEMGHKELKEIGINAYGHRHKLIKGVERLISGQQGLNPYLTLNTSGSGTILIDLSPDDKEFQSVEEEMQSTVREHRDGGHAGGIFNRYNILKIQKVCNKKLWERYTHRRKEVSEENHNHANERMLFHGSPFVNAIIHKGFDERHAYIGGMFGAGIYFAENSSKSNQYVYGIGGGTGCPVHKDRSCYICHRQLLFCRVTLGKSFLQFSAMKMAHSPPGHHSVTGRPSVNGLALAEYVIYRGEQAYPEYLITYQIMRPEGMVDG
Experiment: in vitro Scintillation Proximity Assay (SPA) for TANK-2 inhibitory activity
Format: biochemical
Experimental: In Vitro Scintillation Proximity Assay (SPA) for Tank-2 Inhibitory Activity
Compounds of the present invention were tested in an in vitro assay based on SPA technology with Ni Flash plates (96 or 384 well).
In principle, the assay relies upon SPA technology for the detection of auto-poly(ADP-ribosylation of TANK-2 protein using [^3H]-nicotinamide adenine dinucleotide ([^3H]-NAD^+) as ADP-ribosyl donor.
A stock solution of [^3H]-NAD^+/NAD was made by adding 64.6 μl of [^3H]-NAD^+ (0.1 mCi/ml, supplier: Perkin Elmer) and 46.7 μl NAD-stock (10.7 mM, stored at −20° C., supplier Roche) to 1888.7 μl assay buffer (60 mM Tris/HCl, pH 7.4; 0.9 mM DTT; 6 mM MgCl2). The TANK-2 enzyme was produced as described in EP1238063.60 μl of assay buffer, together with 1 μl of compound in DMSO, 20 μl of [^3H]-NAD^+/NAD and 20 μl of TANK-2 enzyme (final concentration 6 μg/ml) was added per well into a 96-well Ni-coated flash plate (Perkin Elmer). After incubation of the mixture for 120 min. at room temperature, the reaction was terminated by adding 60 μl of stopsolution (42.6 mg NAD in 6 ml H2O). The plates were covered with a plate sealer and placed in a TopCountNXT™ (Packard) for scintillation counting. Values were expressed as counts per minute (cpm). For each experiment, controls (containing TANK-2 enzyme and DMSO without compound), a blank incubation (containing DMSO but no TANK-2 enzyme or compound) and samples (containing TANK-2 enzyme and compound dissolved in DMSO) were run in parallel. All compounds tested were dissolved and eventually further diluted in DMSO. […] In each test, the blank value was subtracted from both the control and the sample values. The control sample represented maximal TANK-2 enzyme activity. For each sample, the amount of cpm was expressed as a percentage of the mean cpm value of the controls. When appropriate, IC50-values (concentration of the drug, needed to reduce the TANK-2 enzyme activity to 50% of the control) were computed using linear interpolation between the experimental points just above and below the 50% level. Herein the effects of test compounds are expressed as pIC50 (the negative log value of the IC50-value). As reference compounds, 3-aminobenzamide and 4-amino-1,8-naphthalimide were included to validate the SPA assay. Herein the assay was described using 96-well plates. In the assay using 384-well plates the same final concentrations were used and volumes were adapted.

| Structure (SMILES) | IC50 [µM] |
| --- | --- |
| O=c1[nH]nc(C2CCN(Cc3ccccc3)CC2)c2ccccc12 [Compound 1] | 8.43 |
| O=c1[nH]nc(N[C@@H]2C[C@H]3CC[C@@H](C2)N3CCCC(c2ccc(F)cc2)c2ccc(F)cc2)c2ccccc12 [Compound 3] | 5.05 |
| Cc1nnc(N2CCN(CCn3c(=O)[nH]c4ccccc4c3=O)CC2)c2ccccc12 [Compound 70] | 3.73 |
| Cc1nc2ccccn2c(=O)c1CCN1CCN(c2nnc(C)c3ccccc23)CC1 [Compound 72] | > 10 |
| Clc1nnc(NC2CCN(CCCCOc3ccccc3)CC2)c2ccccc12 [Compound 59] | > 10 |
| O=c1[nH]nc(NC2CCN(C/C=C/c3ccccc3)CC2)c2ccccc12 [Compound 65] | > 10 |
| O=c1[nH]nc(C2CCN(CCCOc3ccc(F)cc3)CC2)c2ccccc12 [Compound 13] | > 10 |
| Cc1nc2n(c(=O)c1CCN1CCN(c3nnc(C)c4ccccc34)CC1)CCCS2 [Compound 76] | > 10 |
| O=c1[nH]nc(NC2CCN(C[C@@H](O)[C@@H]3CCc4ccccc4O3)CC2)c2ccccc12 (relative stereo) [Compound 27] | > 10 |
| CN(c1nc2ccccc2s1)C1CCN(c2nnc(Cl)c3ccccc23)CC1 [Compound 61] | > 10 |
| CCOC(=O)N1CCC(Nc2n[nH]c(=O)c3ccccc23)CC1 [Compound 56] | > 10 |
| CCOC(=O)N1CCC(Nc2n[nH]c(=O)c3ccccc23)C1 (stereo not shown) [Compound 48] | > 10 |
| CCOC(=O)N1CCC(c2n[nH]c(=O)c3ccccc23)CC1 [Compound 25] | > 10 |
| CCOC(=O)N1CCCC(Nc2n[nH]c(=O)c3ccccc23)CC1 (stereo not shown) [Compound 50] | > 10 |
| O=c1[nH]nc(NCC2CCCN(Cc3ccccc3)C2)c2ccccc12 (stereo not shown) [Compound 44] | > 10 |
| O=c1[nH]nc(NC2CCN(Cc3ccccc3)C2)c2ccccc12 (stereo not shown) [Compound 51] | > 10 |
| CCOC(=O)N1[C@@H]2CC[C@H]1C[C@H](Nc1n[nH]c(=O)c3ccccc13)C2 [Compound 11] | 2.13 |
| O=c1[nH]nc(C2CCN(CCCC(c3ccc(F)cc3)c3ccc(F)cc3)CC2)c2ccccc12 [Compound 67] | > 10 |
| O=c1[nH]nc(NC2CCCNCC2)c2ccccc12 (stereo not shown) [Compound 34] | > 10 |
| O=c1[nH]nc(NC2CCCN(Cc3ccccc3)C2)c2ccccc12 (stereo not shown) [Compound 53] | > 10 |
| O=c1[nH]nc(NC2CCCN(CCCC(c3ccc(F)cc3)c3ccc(F)cc3)CC2)c2ccccc12 (stereo not shown) [Compound 30] | 4 |

| Structure (SMILES) | IC50 [µM] |
| --- | --- |
| Cc1nnc(N2CCN(CCn3c(=O)[nH]c4ccccc43)CC2)c2ccccc12 [Compound 71] | > 10 |
| Cc1nc2scc(C)n2c(=O)c1CCN1CCN(c2nnc(C)c3ccccc23)CC1 [Compound 74] | 4.69 |
| O=c1[nH]nc(NCC2CCCN(CCCC(c3ccc(F)cc3)c3ccc(F)cc3)C2)c2ccccc12 (stereo not shown) [Compound 49] | 1.56 |
| CCOC(=O)N1[C@@H]2CC[C@H]1C[C@H](Nc1nnc(Cl)c3ccccc13)C2 [Compound 24] | 4.37 |
| O=c1[nH]nc(C2CCN(c3ncccn3)CC2)c2ccccc12 [Compound 69] | 5.52 |
| O=c1[nH]nc(C2CCN(C/C=C/c3ccccc3)CC2)c2ccccc12 [Compound 66] | 4.33 |
| O=c1[nH]nc(C2CCN(CCCCOc3ccccc3)CC2)c2ccccc12 [Compound 68] | > 10 |
| O=c1[nH]nc(N[C@@H]2C[C@H]3CC[C@@H](C2)N3)c2ccccc12 [Compound 15] | > 10 |
| O=c1[nH]nc(N2CCN(CCCC(c3ccc(F)cc3)c3ccc(F)cc3)CC2)c2ccccc12 [Compound 52] | 6.55 |
| COc1ccc(CCN2CCC(Nc3n[nH]c(=O)c4ccccc34)CC2)cc1 [Compound 63] | > 10 |
| O=c1[nH]nc(C2CCNCC2)c2ccccc12 [Compound 4] | > 10 |
| Cc1nc2n(c(=O)c1CCN1CCN(c3nnc(C)c4ccccc34)CC1)CCS2 [Compound 75] | > 10 |
| CCOC(=O)N1CCN(c2nnc(Cl)c3ccccc23)CC1 [Compound 58] | 9.02 |
| O=c1[nH]nc(N2CCC(c3cccc(C(F)(F)F)c3)C2)c2ccccc12 (stereo not shown) [Compound 55] | 1.5 |
| Clc1nnc(N2CCN(c3ccccc3)CC2)c2ccccc12 [Compound 77] | 8.83 |
| Cc1nc2sccn2c(=O)c1CCN1CCN(c2nnc(C)c3ccccc23)CC1 [Compound 73] | > 10 |
| O=c1[nH]nc(NC2CCN(CCCCOc3ccccc3)CC2)c2ccccc12 [Compound 46] | > 10 |
| Clc1nnc(NC2CCN(Cc3ccccc3)C2)c2ccccc12 (stereo not shown) [Compound 12] | 9.27 |
| Fc1ccc(C(CCCN2CCN(c3nnc(Cl)c4ccccc34)CC2)c2ccc(F)cc2)cc1 [Compound 57] | 5.08 |
| Cc1nnc(N2CCN(CCCC(c3ccc(F)cc3)c3ccc(F)cc3)CC2)c2ccccc12 [Compound 29] | > 10 |

System: not given
Experiment: not given

| Structure (SMILES) | melting point [°C] |
| --- | --- |
| O=c1[nH]nc(C2CCN(Cc3ccccc3)CC2)c2ccccc12 [Compound 1] | 222 |
| CCOC(=O)N1[C@@H]2CC[C@H]1C[C@H](Nc1n[nH]c(=O)c3ccccc13)C2 [Compound 11] | 218.6 |
